Data as given in US4886884A, “Derivatives from cervinomycin based antibiotics” (The Kitazato Institute, priority 1986, dated 1989).
Values after ≈ are worked out from the molar mass of the structure shown. Like-named read-outs stand apart in the source and are kept apart here.

What was measured:
[1] = tested on: Gram-positive and Gram-negative bacteria, mycoplasmas; test: Antimicrobial activity (overall, in words); format: cell-based
[2] = tested on: Staphylococcus aureus KB-210 (ATCC 6538P); test: Antibacterial activity, minimum inhibitory concentration (MIC); format: cell-based; details: ATCC6538P
[3] = tested on: Bacillus subtilis KB-211 (ATCC 6633); test: as above; format: cell-based
[4] = tested on: Bacillus cereus KB-143 (IFO 3001); test: as above; format: cell-based
[5] = tested on: Micrococcus luteus KB-212 (ATCC 9341); test: as above; format: cell-based
[6] = tested on: Escherichia coli KB-176 (NIHJ JC-2); test: as above; format: cell-based
[7] = tested on: Salmonella typhimurium KB-20; test: as above; format: cell-based; details: Salmonella enterica
[8] = tested on: Klebsiella pneumoniae KB-214 (ATCC 10031); test: as above; format: cell-based
[9] = tested on: Proteus vulgaris KB-127 (IFO 3167); test: as above; format: cell-based
[10] = tested on: Pseudomonas aeruginosa KB-115 (IFO 3080); test: as above; format: cell-based
[11] = tested on: Clostridium perfringens (ATCC 13124); test: microbe, parasite or virus in culture; format: cell-based; details: ATCC13124
[12] = tested on: Peptococcus variabilis KB-235 (ATCC 14955); test: Antibacterial activity, minimum inhibitory concentration (MIC); format: cell-based
[13] = tested on: Bacteroides fragilis KB-169 (ATCC 23749); test: as above; format: cell-based
[14] = tested on: Mycoplasma gallisepticum KB-171 (S-6); test: as above; format: cell-based; details: Mycoplasmoides gallisepticum
[15] = tested on: Mycoplasma pneumoniae KB-173; test: as above; format: cell-based
[16] = tested on: Acholeplasma laidlawii KB-174 (PG-8); test: as above; format: cell-based
[17] = Solubility in different solvents; format: physicochemical; details: organic solvent or mixture
From the text: Compounds (1) of the present invention had the following solubilities in different solvents.

[18] = Acute toxicity test by oral administration; details: mouse, in vivo
[19] = tested on: Clostridium difficile (ATCC 9689); test: Antibacterial activity, minimum inhibitory concentration (MIC); format: cell-based; details: Clostridioides difficile, ATCC9689
[20] = tested on: Bifidobacterium bifidum (ATCC 11146); test: as above; format: cell-based
in vivo = details: mouse, po
[21] = acetic acid, read-out: Solubility in Acetic acid
[22] = dmso, read-out: Solubility in DMSO
[23] = methanol, read-out: Solubility in Methanol
[24] = inoculum 1 × 10^6 cells/ml, 37° C., read-out: MIC
[25] = ATCC6633, inoculum 1 × 10^6 cells/ml, 37° C., read-out: MIC
[26] = IFO3001, inoculum 1 × 10^6 cells/ml, 37° C., read-out: MIC
[27] = ATCC9341, inoculum 1 × 10^6 cells/ml, 37° C., read-out: MIC
[28] = NIHJJC2, inoculum 1 × 10^6 cells/ml, 37° C., read-out: MIC
[29] = ATCC10031, inoculum 1 × 10^6 cells/ml, 37° C., read-out: MIC
[30] = IFO3167, inoculum 1 × 10^6 cells/ml, 37° C., read-out: MIC
[31] = IFO3080, inoculum 1 × 10^6 cells/ml, 37° C., read-out: MIC
[32] = ATCC23749, inoculum 1 × 10^6 cells/ml, 37° C., read-out: MIC
[33] = ATCC11146, inoculum 1 × 10^6 cells/ml, 37° C., read-out: MIC

Compound: COc1cc2oc3c(c(=O)c2cc1OC)C(=O)c1c(ccc2c(C)c4c(c(OC)c12)C(=O)N1CCOC1(C)C4)C3=O (centres unmarked) [C,O-dimethyl Cervinomycin A2]
- antimicrobial activity [1]: substantially equal to those of Cervinomycin A1 and A2

Compound: COc1cc2oc3c(c(=O)c2cc1OC)C(=O)c1c(ccc2c(C)c4c(c(O)c12)C(=O)N1CCOC1(C)C4)C3=O (centres unmarked) [C-methyl Cervinomycin A2]
- antimicrobial activity [1]: substantially equal to those of Cervinomycin A1 and A2

Compound: COc1cc2oc3c(O)c4ccc5cc6c(c(O)c5c4c(O)c3c(=O)c2cc1OC)C(=O)N1CCOC1(C)C6 (centres unmarked) [Cervinomycin A1, reference compound]
- MIC [2]: 5 µg/mL (≈ 9.44 µM)
- MIC ([3]; ATCC6633): 2.5 µg/mL (≈ 4.72 µM)
- MIC ([4]; IFO3001): 10 µg/mL (≈ 18.9 µM)
- MIC ([5]; ATCC9341): 5 µg/mL (≈ 9.44 µM)
- MIC ([6]; NIHJJC2): > 10 µg/mL
- MIC [7]: > 10 µg/mL
- MIC ([8]; ATCC10031): > 10 µg/mL
- MIC ([9]; IFO3167): > 10 µg/mL
- MIC ([10]; IFO3080): > 10 µg/mL
- MIC [11]: 1.25 µg/mL (≈ 2.36 µM)
- MIC [12]: 0.62 µg/mL (≈ 1.17 µM)
- MIC ([13]; ATCC23749): 1.25 µg/mL (≈ 2.36 µM)
- MIC [14]: 12.5 µg/mL (≈ 23.6 µM)
- MIC ([15]; KB173): 12.5 µg/mL (≈ 23.6 µM)
- MIC [16]: 12.5 µg/mL (≈ 23.6 µM)
- solubility [17, 21]: 23 µg/mL (≈ 43.4 µM)
- solubility [17, 22]: 78 µg/mL (≈ 147 µM)
- solubility [17, 23]: 0.3 µg/mL (≈ 0.567 µM)
- LD50 [18]: 320 mg/kg

Compound: CCC[C@@H]1C[C@@H](C(=O)N[C@@H]([C@H]2O[C@H](SC)[C@H](O)[C@@H](O)[C@H]2O)[C@H](C)Cl)N(C)C1 [Clindamycin, reference compound]
- MIC [2, 24]: 0.16 µg/mL (≈ 0.376 µM)
- MIC [3, 25]: 2.5 µg/mL (≈ 5.88 µM)
- MIC [4, 26]: 0.63 µg/mL (≈ 1.48 µM)
- MIC [5, 27]: 0.04 µg/mL (≈ 0.0941 µM)
- MIC [6, 28]: > 10 µg/mL
- MIC [7]: > 10 µg/mL
- MIC [8, 29]: > 10 µg/mL
- MIC [9, 30]: > 10 µg/mL
- MIC [10, 31]: > 10 µg/mL
- MIC [11]: 0.4 µg/mL (≈ 0.941 µM)
- MIC [19, 24]: 6.3 µg/mL (≈ 14.8 µM)
- MIC [12, 24]: 0.16 µg/mL (≈ 0.376 µM)
- MIC [13, 32]: 0.08 µg/mL (≈ 0.188 µM)
- MIC [20, 33]: 0.02 µg/mL (≈ 0.0471 µM)
- MIC [14]: 0.62 µg/mL (≈ 1.46 µM)
- MIC ([15]; KB173): 0.62 µg/mL (≈ 1.46 µM)
- MIC [16]: 0.62 µg/mL (≈ 1.46 µM)

Compound: COc1cc2oc3c(c(=O)c2cc1OC)C(=O)c1c(ccc2cc4c(c(OC(C)=O)c12)C(=O)N1CCOC1(C)C4)C3=O (centres unmarked) [Monoacetyl Cervinomycin A2, monoacetyl Cervinomycin A2]
- MIC [2, 24]: 0.31 µg/mL (≈ 0.544 µM)
- MIC [3, 25]: 0.08 µg/mL (≈ 0.14 µM)
- MIC [4, 26]: 0.16 µg/mL (≈ 0.281 µM)
- MIC [5, 27]: 0.4 µg/mL (≈ 0.702 µM)
- MIC [6, 28]: > 10 µg/mL
- MIC [7, 24]: > 10 µg/mL
- MIC [8, 29]: > 10 µg/mL
- MIC [9, 30]: > 10 µg/mL
- MIC [10, 31]: > 10 µg/mL
- MIC [11]: 0.02 µg/mL (≈ 0.0351 µM)
- MIC [19, 24]: 0.05 µg/mL (≈ 0.0878 µM)
- MIC [13, 32]: 0.1 µg/mL (≈ 0.176 µM)
- MIC [20, 33]: 0.2 µg/mL (≈ 0.351 µM)
- MIC [14, 24]: 1.25 µg/mL (≈ 2.19 µM)
- MIC ([15]; KB173, inoculum 1 × 10^6 cells/ml, 37° C., read-out: MIC): 0.6 µg/mL (≈ 1.05 µM)
- MIC [16, 24]: 1.25 µg/mL (≈ 2.19 µM)
- solubility [17, 21]: 3000 µg/mL (≈ 5270 µM)
- solubility [17, 22]: 5000 µg/mL (≈ 8780 µM)
- solubility [17, 23]: 300 µg/mL (≈ 527 µM)
- LD50 (in vivo): 1800 mg/kg

Compound: COc1cc2oc3c(c(=O)c2cc1OC)C(=O)c1c(ccc2cc4c(c(OC)c12)C(=O)N1CCOC1(C)C4)C3=O (centres unmarked) [O-methyl Cervinomycin A2]
- antimicrobial activity [1]: substantially equal to those of Cervinomycin A1 and A2

Compound: COc1cc2oc3c(OC(C)=O)c4ccc5cc6c(c(OC(C)=O)c5c4c(OC(C)=O)c3c(=O)c2cc1OC)C(=O)N1CCOC1(C)C6 (centres unmarked) [Triacetyl Cervinomycin A1, triacetyl Cervinomycin A1]
- MIC [2]: 0.16 µg/mL (≈ 0.244 µM)
- MIC ([3]; ATCC6633): > 0.02 µg/mL
- MIC ([4]; IFO3001): 0.31 µg/mL (≈ 0.473 µM)
- MIC ([5]; ATCC9341): 0.08 µg/mL (≈ 0.122 µM)
- MIC ([6]; NIHJJC2): > 10 µg/mL
- MIC [7]: > 10 µg/mL
- MIC ([8]; ATCC10031): > 10 µg/mL
- MIC ([9]; IFO3167): > 10 µg/mL
- MIC ([10]; IFO3080): > 10 µg/mL
- MIC [11]: 0.02 µg/mL (≈ 0.0305 µM)
- MIC [19]: 0.05 µg/mL (≈ 0.0763 µM)
- MIC [12]: 0.02 µg/mL (≈ 0.0305 µM)
- MIC ([13]; ATCC23749): 0.1 µg/mL (≈ 0.153 µM)
- MIC ([20]; ATCC11146): 0.2 µg/mL (≈ 0.305 µM)
- MIC [14]: 0.156 µg/mL (≈ 0.238 µM)
- MIC ([15]; KB173): 0.156 µg/mL (≈ 0.238 µM)
- MIC [16]: 0.312 µg/mL (≈ 0.476 µM)
- solubility [17, 21]: > 25000 µg/mL
- solubility [17, 22]: > 50000 µg/mL
- solubility [17, 23]: 1400 µg/mL (≈ 2140 µM)
- LD50 [18]: 1620 mg/kg
